system: Alopecurus myosuroides (ALOMY); assay: Herbicidal glasshouse test, pre-emergence, ALOMY; format: in vivo; settings: applied at 1000 g/h, evaluated after 13 days

SMILES | PRE Application ALOMY, percentage damage (five point scale)
Cc1cc(Cn2c(=O)c(C(=O)Nc3nnnn3C)nn(C)c2=O)cc(C)c1F [Compound 1.078] | 2 (2=20-39%)
Cn1nnnc1NC(=O)c1nn(C)c(=O)n(Cc2cccc(C(F)F)c2)c1=O [Compound 1.079] | 5 (5=80-100%)
Cn1nnnc1NC(=O)c1nn(C)c(=O)n(Cc2ccc(SC(F)(F)F)cc2)c1=O [Compound 1.080] | 5 (5=80-100%)
COc1ccc([N+](=O)[O-])cc1Cn1c(=O)c(C(=O)Nc2nnnn2C)nn(C)c1=O [Compound 1.081] | 5 (5=80-100%)
Cn1nnnc1NC(=O)c1nn(C)c(=O)n(Cc2ccccc2Br)c1=O [Compound 1.082] | 5 (5=80-100%)

system: Setaria faberi (SETFA); assay: Herbicidal glasshouse test, pre-emergence, SETFA; format: in vivo; settings: applied at 1000 g/h, evaluated after 13 days

SMILES | PRE Application SETFA, percentage damage (five point scale)
Cc1cc(Cn2c(=O)c(C(=O)Nc3nnnn3C)nn(C)c2=O)cc(C)c1F [Compound 1.078] | 1 (1=0-19%)
Cn1nnnc1NC(=O)c1nn(C)c(=O)n(Cc2cccc(C(F)F)c2)c1=O [Compound 1.079] | 1 (1=0-19%)
Cn1nnnc1NC(=O)c1nn(C)c(=O)n(Cc2ccc(SC(F)(F)F)cc2)c1=O [Compound 1.080] | 5 (5=80-100%)
COc1ccc([N+](=O)[O-])cc1Cn1c(=O)c(C(=O)Nc2nnnn2C)nn(C)c1=O [Compound 1.081] | 2 (2=20-39%)
Cn1nnnc1NC(=O)c1nn(C)c(=O)n(Cc2ccccc2Br)c1=O [Compound 1.082] | 3 (3=40-59%)

system: Echinochloa crus-galli (ECHCG); assay: Herbicidal glasshouse test, pre-emergence, ECHCG; format: in vivo; settings: applied at 1000 g/h, evaluated after 13 days
In short: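 In this pre-emergence glasshouse test, ECHCG seeds sown in pots of standard soil were sprayed one day after sowing with the test material in acetone/water (50:50) containing 0.5% Tween 20. Plants were kept at 24/16° C., 14 hours light, 65% humidity, and watered twice daily. Percentage damage was rated after 13 days on a 1–5 scale.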

SMILES | PRE Application ECHCG, percentage damage (five point scale)
Cc1cc(Cn2c(=O)c(C(=O)Nc3nnnn3C)nn(C)c2=O)cc(C)c1F [Compound 1.078] | 2 (2=20-39%)
Cn1nnnc1NC(=O)c1nn(C)c(=O)n(Cc2cccc(C(F)F)c2)c1=O [Compound 1.079] | 5 (5=80-100%)
Cn1nnnc1NC(=O)c1nn(C)c(=O)n(Cc2ccc(SC(F)(F)F)cc2)c1=O [Compound 1.080] | 5 (5=80-100%)
COc1ccc([N+](=O)[O-])cc1Cn1c(=O)c(C(=O)Nc2nnnn2C)nn(C)c1=O [Compound 1.081] | 5 (5=80-100%)
Cn1nnnc1NC(=O)c1nn(C)c(=O)n(Cc2ccccc2Br)c1=O [Compound 1.082] | 5 (5=80-100%)

system: Solanum nigrum (SOLNI); assay: Herbicidal glasshouse test, pre-emergence, SOLNI; format: in vivo; settings: applied at 1000 g/h, evaluated after 13 days
In short: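 This pre-emergence glasshouse herbicide test used Solanum nigrum sown in standard soil. One day after sowing, pots were sprayed with the compound in acetone/water (50:50) with 0.5% Tween 20. They were then grown at 24/16° C., with 14 hours light and 65% humidity, and watered twice daily. Percentage damage was scored after 13 days on a five point scale, where 5=80-100% and 1=0-19%.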

SMILES | PRE Application SOLNI, percentage damage (five point scale)
Cc1cc(Cn2c(=O)c(C(=O)Nc3nnnn3C)nn(C)c2=O)cc(C)c1F [Compound 1.078] | 5 (5=80-100%)
Cn1nnnc1NC(=O)c1nn(C)c(=O)n(Cc2cccc(C(F)F)c2)c1=O [Compound 1.079] | 5 (5=80-100%)
Cn1nnnc1NC(=O)c1nn(C)c(=O)n(Cc2ccc(SC(F)(F)F)cc2)c1=O [Compound 1.080] | 5 (5=80-100%)
COc1ccc([N+](=O)[O-])cc1Cn1c(=O)c(C(=O)Nc2nnnn2C)nn(C)c1=O [Compound 1.081] | 5 (5=80-100%)
Cn1nnnc1NC(=O)c1nn(C)c(=O)n(Cc2ccccc2Br)c1=O [Compound 1.082] | 5 (5=80-100%)

system: Amaranthus retoflexus (AMARE); assay: Herbicidal glasshouse test, pre-emergence, AMARE; format: in vivo; settings: applied at 1000 g/h, evaluated after 13 days
In short: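 This pre-emergence glasshouse herbicide test used Amaranthus retoflexus sown in standard soil. After one day of cultivation, an aqueous spray made from the technical ingredient in 50:50 acetone/water with 0.5% Tween 20 was applied. Pots stayed at 24/16° C., 14 hours light, 65% humidity, with twice-daily watering. Damage was rated on a five point scale (1=0-19% up to 5=80-100%).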

SMILES | PRE Application AMARE, percentage damage (five point scale)
Cc1cc(Cn2c(=O)c(C(=O)Nc3nnnn3C)nn(C)c2=O)cc(C)c1F [Compound 1.078] | 5 (5=80-100%)
Cn1nnnc1NC(=O)c1nn(C)c(=O)n(Cc2cccc(C(F)F)c2)c1=O [Compound 1.079] | 5 (5=80-100%)
Cn1nnnc1NC(=O)c1nn(C)c(=O)n(Cc2ccc(SC(F)(F)F)cc2)c1=O [Compound 1.080] | 5 (5=80-100%)
COc1ccc([N+](=O)[O-])cc1Cn1c(=O)c(C(=O)Nc2nnnn2C)nn(C)c1=O [Compound 1.081] | 5 (5=80-100%)
Cn1nnnc1NC(=O)c1nn(C)c(=O)n(Cc2ccccc2Br)c1=O [Compound 1.082] | 5 (5=80-100%)

system: Ipomoea hederacea (IPOHE); assay: Herbicidal glasshouse test, pre-emergence, IPOHE; format: in vivo; settings: applied at 1000 g/h, evaluated after 13 days

SMILES | PRE Application IPOHE, percentage damage (five point scale)
Cc1cc(Cn2c(=O)c(C(=O)Nc3nnnn3C)nn(C)c2=O)cc(C)c1F [Compound 1.078] | 2 (2=20-39%)
Cn1nnnc1NC(=O)c1nn(C)c(=O)n(Cc2cccc(C(F)F)c2)c1=O [Compound 1.079] | 4 (4=60-79%)
Cn1nnnc1NC(=O)c1nn(C)c(=O)n(Cc2ccc(SC(F)(F)F)cc2)c1=O [Compound 1.080] | 5 (5=80-100%)
COc1ccc([N+](=O)[O-])cc1Cn1c(=O)c(C(=O)Nc2nnnn2C)nn(C)c1=O [Compound 1.081] | 5 (5=80-100%)
Cn1nnnc1NC(=O)c1nn(C)c(=O)n(Cc2ccccc2Br)c1=O [Compound 1.082] | 5 (5=80-100%)

system: Alopecurus myosuroides (ALOMY); assay: Herbicidal glasshouse test, post-emergence, ALOMY; format: in vivo; settings: applied at 1000 g/h, evaluated after 13 days

SMILES | POST Application ALOMY, percentage damage (five point scale)
Cc1cc(Cn2c(=O)c(C(=O)Nc3nnnn3C)nn(C)c2=O)cc(C)c1F [Compound 1.078] | 2 (2=20-39%)
Cn1nnnc1NC(=O)c1nn(C)c(=O)n(Cc2cccc(C(F)F)c2)c1=O [Compound 1.079] | 4 (4=60-79%)
Cn1nnnc1NC(=O)c1nn(C)c(=O)n(Cc2ccc(SC(F)(F)F)cc2)c1=O [Compound 1.080] | 5 (5=80-100%)
COc1ccc([N+](=O)[O-])cc1Cn1c(=O)c(C(=O)Nc2nnnn2C)nn(C)c1=O [Compound 1.081] | 5 (5=80-100%)
Cn1nnnc1NC(=O)c1nn(C)c(=O)n(Cc2ccccc2Br)c1=O [Compound 1.082] | 5 (5=80-100%)

system: Setaria faberi (SETFA); assay: Herbicidal glasshouse test, post-emergence, SETFA; format: in vivo; settings: applied at 1000 g/h, evaluated after 13 days
In short: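 This post-emergence glasshouse herbicide test used potted Setaria faberi. Plants were cultivated for 8 days under controlled conditions (24/16° C. day/night, 14 hours light, 65% humidity) and then treated with an aqueous spray made from an acetone/water (50:50) solution containing 0.5% Tween 20. After 13 days of further growth with twice-daily watering, damage was rated on a five point scale (5=80-100%; 1=0-19%).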

SMILES | POST Application SETFA, percentage damage (five point scale)
Cc1cc(Cn2c(=O)c(C(=O)Nc3nnnn3C)nn(C)c2=O)cc(C)c1F [Compound 1.078] | 2 (2=20-39%)
Cn1nnnc1NC(=O)c1nn(C)c(=O)n(Cc2cccc(C(F)F)c2)c1=O [Compound 1.079] | 2 (2=20-39%)
Cn1nnnc1NC(=O)c1nn(C)c(=O)n(Cc2ccc(SC(F)(F)F)cc2)c1=O [Compound 1.080] | 5 (5=80-100%)
COc1ccc([N+](=O)[O-])cc1Cn1c(=O)c(C(=O)Nc2nnnn2C)nn(C)c1=O [Compound 1.081] | 4 (4=60-79%)
Cn1nnnc1NC(=O)c1nn(C)c(=O)n(Cc2ccccc2Br)c1=O [Compound 1.082] | 2 (2=20-39%)

system: Echinochloa crus-galli (ECHCG); assay: Herbicidal glasshouse test, post-emergence, ECHCG; format: in vivo; settings: applied at 1000 g/h, evaluated after 13 days
In short: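 In this post-emergence glasshouse test, barnyard grass (ECHCG) was cultivated for 8 days under controlled conditions (24/16° C. day/night, 14 hours light, 65% humidity). It was then sprayed with an aqueous solution of the technical compound in acetone / water (50:50) with 0.5% Tween 20. Plants were kept under the same conditions and watered twice daily. After 13 days, percentage damage was rated on a five point scale (5=80-100%; 1=0-19%).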

SMILES | POST Application ECHCG, percentage damage (five point scale)
Cc1cc(Cn2c(=O)c(C(=O)Nc3nnnn3C)nn(C)c2=O)cc(C)c1F [Compound 1.078] | 4 (4=60-79%)
Cn1nnnc1NC(=O)c1nn(C)c(=O)n(Cc2cccc(C(F)F)c2)c1=O [Compound 1.079] | 5 (5=80-100%)
Cn1nnnc1NC(=O)c1nn(C)c(=O)n(Cc2ccc(SC(F)(F)F)cc2)c1=O [Compound 1.080] | 4 (4=60-79%)
COc1ccc([N+](=O)[O-])cc1Cn1c(=O)c(C(=O)Nc2nnnn2C)nn(C)c1=O [Compound 1.081] | 4 (4=60-79%)
Cn1nnnc1NC(=O)c1nn(C)c(=O)n(Cc2ccccc2Br)c1=O [Compound 1.082] | 5 (5=80-100%)

system: Solanum nigrum (SOLNI); assay: Herbicidal glasshouse test, post-emergence, SOLNI; format: in vivo; settings: applied at 1000 g/h, evaluated after 13 days

SMILES | POST Application SOLNI, percentage damage (five point scale)
Cc1cc(Cn2c(=O)c(C(=O)Nc3nnnn3C)nn(C)c2=O)cc(C)c1F [Compound 1.078] | 5 (5=80-100%)
Cn1nnnc1NC(=O)c1nn(C)c(=O)n(Cc2cccc(C(F)F)c2)c1=O [Compound 1.079] | 5 (5=80-100%)
Cn1nnnc1NC(=O)c1nn(C)c(=O)n(Cc2ccc(SC(F)(F)F)cc2)c1=O [Compound 1.080] | 5 (5=80-100%)
COc1ccc([N+](=O)[O-])cc1Cn1c(=O)c(C(=O)Nc2nnnn2C)nn(C)c1=O [Compound 1.081] | 5 (5=80-100%)
Cn1nnnc1NC(=O)c1nn(C)c(=O)n(Cc2ccccc2Br)c1=O [Compound 1.082] | 5 (5=80-100%)

system: Amaranthus retoflexus (AMARE); assay: Herbicidal glasshouse test, post-emergence, AMARE; format: in vivo; settings: applied at 1000 g/h, evaluated after 13 days
In short: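 This post-emergence glasshouse test used AMARE plants raised in standard soil for 8 days under controlled conditions (24/16° C. day/night, 14 hours light, 65% humidity). Foliage was sprayed with formulated compound in acetone/water (50:50) containing 0.5% Tween 20. Plants were then watered twice daily, and after 13 days percentage damage was rated on a five point scale.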

SMILES | POST Application AMARE, percentage damage (five point scale)
Cc1cc(Cn2c(=O)c(C(=O)Nc3nnnn3C)nn(C)c2=O)cc(C)c1F [Compound 1.078] | 5 (5=80-100%)
Cn1nnnc1NC(=O)c1nn(C)c(=O)n(Cc2cccc(C(F)F)c2)c1=O [Compound 1.079] | 5 (5=80-100%)
Cn1nnnc1NC(=O)c1nn(C)c(=O)n(Cc2ccc(SC(F)(F)F)cc2)c1=O [Compound 1.080] | 5 (5=80-100%)
COc1ccc([N+](=O)[O-])cc1Cn1c(=O)c(C(=O)Nc2nnnn2C)nn(C)c1=O [Compound 1.081] | 5 (5=80-100%)
Cn1nnnc1NC(=O)c1nn(C)c(=O)n(Cc2ccccc2Br)c1=O [Compound 1.082] | 5 (5=80-100%)

system: Ipomoea hederacea (IPOHE); assay: Herbicidal glasshouse test, post-emergence, IPOHE; format: in vivo; settings: applied at 1000 g/h, evaluated after 13 days

SMILES | POST Application IPOHE, percentage damage (five point scale)
Cc1cc(Cn2c(=O)c(C(=O)Nc3nnnn3C)nn(C)c2=O)cc(C)c1F [Compound 1.078] | 5 (5=80-100%)
Cn1nnnc1NC(=O)c1nn(C)c(=O)n(Cc2cccc(C(F)F)c2)c1=O [Compound 1.079] | 5 (5=80-100%)
Cn1nnnc1NC(=O)c1nn(C)c(=O)n(Cc2ccc(SC(F)(F)F)cc2)c1=O [Compound 1.080] | 5 (5=80-100%)
COc1ccc([N+](=O)[O-])cc1Cn1c(=O)c(C(=O)Nc2nnnn2C)nn(C)c1=O [Compound 1.081] | 5 (5=80-100%)
Cn1nnnc1NC(=O)c1nn(C)c(=O)n(Cc2ccccc2Br)c1=O [Compound 1.082] | 5 (5=80-100%)
